Results as given in patent publication US20250115569A1, “SULFONAMIDE COMPOUNDS FOR THE TREATMENT OF NEUROLOGICAL CONDITIONS” (LARIO THERAPEUTICS LIMITED, priority 2021, published 2025).

tested on: Human Cav2.3 channel; test: Human Cav2.3 channel calcium-influx assay; type: cell-based; settings: Fluo8 fluorescence, HEK-293 T-Rex/Kir2.1/Cav2.3e cells, without pluronic acid
Experimental: HEK-293 T-Rex cells were transfected with pcDNA3.1-Kir2.1 to generate a stable cell line. After antibiotic selection, the obtained stable pools were analysed using FLIPR^TETRA (membrane potential assay), and a limiting dilution was performed and a HEK-293 T-Rex/Kir2.1 clone was selected. The clone was transfected with pcDNA3.1-Cav2.3e and pBud-Cav-β4-α2δ1 to generate a stable cell line where the Cav2.3e expression is inducible. After antibiotic selection, functional clone pool analysis and two successive limiting dilutions, the final clone underwent a qPCR analysis and a biophysical and pharmacological validation using patch-clamp.
A compound plate, containing 10 test compounds in eight-points dose response with n=4, was prepared. Test compounds dose response curves were prepared in automated fashion in 100% DMSO at CyBio Felix and starting from a stock solution in 100% DMSO; a defined volume was serially moved into destination wells pre-filled with the desired DMSO volume; stock solution concentration volumes were dependent on the final compounds concentrations to be tested and the final DMSO content used in the assay. For the assay test compounds dose response curves ranged from 30 μM and half log dilution with 0.3% final DMSO. In order to obtain the 8-points dose response curve all the concentrations were created by starting from a 10 mM DMSO stock solution and then moving 9.5 μL into a destination well pre-filled with 20.5 μL of 100% DMSO and repeating this step seven times. This initial step was done into 96 MTP plates, 10 compounds/plate. One 384 MTP was then reformatted to contain all the 10 compounds at 8 concentrations, quadruplicate data points. This so obtained 384 MTP compound plate served as source plate in a “mother to child” process with a CyBi®-Well dispenser in which 0.7 μL of compounds were moved into a destination plate pre-filled with 57.6 μL of Tyrode's buffer 0 mM K+, thus obtaining 4× concentrated compounds solution. In columns 1-2 and 23-24 the control wells were added. Both “source” compound plate and “destination” compound plate were barcoded and a relationship between the two plates was thus generated.
The day before the experiment, cells were detached by gentle wash with DPBS, followed by 5 min incubation at 37° C. with Trypsin solution. Detached cells were diluted with OptiMEM+Doxycycline at 0.2 μg/mL, counted and plated in Poly-D-Lysine coated black/clear bottom (15.000 c/well in 20 μl/well) by the use of a MATRIX WellMate dispenser. Plates were placed into a humidified incubator at 37° C. with 5% CO2 until the experimental day. 24 h after seeding 10 μL/well of 1.5× Fluo8 NW dye solution prepared in Tyrode's buffer 0 mM K* were added on top of the seeding medium. Cell plates were incubated for 40-60 min at RT in the dark. We then Injected off-line 10 μL/well of test compounds and controls 4× concentrated in Tyrode's Buffer 0 mM K+ with the CyBi®-Well instrument. Cell plates were incubated 3 minutes at RT. Finally, we injected 20 μL/well of 3× concentrated activator solution (K20-Na130-Ca2 buffer: 20 mM KCl, 130 mM NaCl, 2 mM CaCl2, 10 mM HEPES, 10 mM Glucose, final concentrations, prepared starting from “K0-Na150-Ca2” and “K150-Na0-Ca2” buffers) at FDSS7000EX instrument and read emitted fluorescence for 130 seconds.
Data analysis was performed with Genedata Screener® software and reported compounds activity as % effect in relation to the normalization standards. The Kinetic Response Value (KRV) is calculated as follows:
KRV=Maximal fluorescence recorded from second 5 to second 130 minus baseline fluorescence, computed as average from second 1 to second 2, of the kinetic trace. The KRV was normalized versus Neutral Controls and Inhibitor Controls in order to obtain the Activity[%] for each well. […] Therefore, the compound activity values were scaled (based on the two references) to a common range (two-point normalization). […]

Cav2.3 (pIC50) | Compound
6.92 | CCN(C(c1ccc(F)cc1)C(F)(F)F)S(=O)(=O)C1CCCOC1 (centres unmarked) [Example 56, N-ethyl-N-(2,2,2-trifluoro-1-(4-fluorophenyl)ethyl)tetrahydro-2H-pyran-3-sulfonamide]
6.96 | CCN(C(c1ccc(F)cc1)C(F)(F)F)S(=O)(=O)c1cncnc1 (centres unmarked) [Example 57, N-ethyl-N-(2,2,2-trifluoro-1-(4-fluorophenyl)ethyl)pyrimidine-5-sulfonamide]
6.35 | CN(C(c1ccc(F)cc1)C(F)(F)F)S(=O)(=O)c1cncnc1 (centres unmarked) [Example 58, N-methyl-N-(2,2,2-trifluoro-1-(4-fluorophenyl)ethyl)pyrimidine-5-sulfonamide]
5.21 | CCN([C@@H](c1ccc(F)cc1)C(F)(F)F)S(=O)(=O)c1cncnc1 [Example 59, (S)—N-ethyl-N-(2,2,2-trifluoro-1-(4-fluorophenyl)ethyl)pyrimidine-5-sulfonamide]
7.14 | CCN(C(c1ccc(F)cc1)C(F)(F)F)S(=O)(=O)c1cncnc1 [Example 60, (R)—N-ethyl-N-(2,2,2-trifluoro-1-(4-fluorophenyl)ethyl)pyrimidine-5-sulfonamide]
7.01 | CCN(C(c1ccc(F)cc1)C(F)(F)F)S(=O)(=O)C1CCOCC1 (centres unmarked) [Example 61, N-ethyl-N-(2,2,2-trifluoro-1-(4-fluorophenyl)ethyl)tetrahydro-2H-pyran-4-sulfonamide]
5.20 | CCN([C@@H](c1ccc(F)cc1)C(F)(F)F)S(=O)(=O)C1CCOCC1 [Example 62, (S)—N-ethyl-N-(2,2,2-trifluoro-1-(4-fluorophenyl)ethyl)tetrahydro-2H-pyran-4-sulfonamide]
6.80 | CCN(C(c1cccc(OC)c1)C(F)(F)F)S(=O)(=O)c1cncc(C#N)c1 (centres unmarked) [Example 71, 5-Cyano-N-ethyl-N-(2,2,2-trifluoro-1-(3-methoxyphenyl)ethyl)pyridine-3-sulfonamide]
6.20 | CCN([C@H](c1cccc(OC)c1)C(F)(F)F)S(=O)(=O)c1cncc(C#N)c1 [Example 72, (R)-5-Cyano-N-ethyl-N-(2,2,2-trifluoro-1-(3-methoxyphenyl)ethyl)pyridine-3-sulfonamide]
5.50 | CCN([C@@H](c1cccc(OC)c1)C(F)(F)F)S(=O)(=O)c1cncc(C#N)c1 [Example 73, (S)-5-Cyano-N-ethyl-N-(2,2,2-trifluoro-1-(3-methoxyphenyl)ethyl)pyridine-3-sulfonamide]
5.83 | Cc1ncc(S(=O)(=O)N(C)C(c2ccc(F)cc2)C(F)(F)F)cn1 (centres unmarked) [Example 74, N,2-dimethyl-N-(2,2,2-trifluoro-1-(4-fluorophenyl)ethyl)pyrimidine-5-sulfonamide]
5.94 | CCN(C(c1ccc(F)cc1)C(F)(F)F)S(=O)(=O)c1cnc(C)nc1 (centres unmarked) [Example 75, N-ethyl-2-methyl-N-(2,2,2-trifluoro-1-(4-fluorophenyl)ethyl)pyrimidine-5-sulfonamide]
5.31 | CCN([C@@H](c1ccc(F)cc1)C(F)(F)F)S(=O)(=O)c1cnc(C)nc1 [Example 76, (S)—N-ethyl-2-methyl-N-(2,2,2-trifluoro-1-(4-fluorophenyl)ethyl)pyrimidine-5-sulfonamide]
5.69 | Cc1ncc(S(=O)(=O)N(C)[C@H](c2ccc(F)cc2)C(F)(F)F)cn1 [Example 78, (R)—N,2-dimethyl-N-(2,2,2-trifluoro-1-(4-fluorophenyl)ethyl)pyrimidine-5-sulfonamide]
4.99 | Cc1ncc(S(=O)(=O)N(C)[C@@H](c2ccc(F)cc2)C(F)(F)F)cn1 [Example 79, (S)—N,2-dimethyl-N-(2,2,2-trifluoro-1-(4-fluorophenyl)ethyl)pyrimidine-5-sulfonamide]
6.34 | CCN(C(c1cccc(C(F)(F)F)c1)C(F)(F)F)S(=O)(=O)c1cncc(C#N)c1 (centres unmarked) [Example 85, 5-Cyano-N-ethyl-N-(2,2,2-trifluoro-1-(3-(trifluoromethyl)phenyl)ethyl)pyridine-3-sulfonamide]
5.95 | CCN(C(c1ccccc1C)C(F)(F)F)S(=O)(=O)c1cncc(C#N)c1 (centres unmarked) [Example 86, 5-cyano-N-ethyl-N-(2,2,2-trifluoro-1-(o-tolyl)ethyl)pyridine-3-sulfonamide]
5.50 | CCN(C(c1ccc(F)cc1)C(F)(F)F)S(=O)(=O)c1ccc(C2=CCOCC2)s1 (centres unmarked) [Example 87, 5-(3,6-Dihydro-2H-pyran-4-yl)-N-ethyl-N-(2,2,2-trifluoro-1-(4-fluorophenyl)ethyl)thiophene-2-sulfonamide]
5.60 | CCN(C(c1ccc(F)cc1)C(F)(F)F)S(=O)(=O)c1ccc(C2CCOCC2)s1 (centres unmarked) [Example 88, N-ethyl-5-(tetrahydro-2H-pyran-4-yl)-N-(2,2,2-trifluoro-1-(4-fluorophenyl)ethyl)thiophene-2-sulfonamide]
5.68 | CCN(C(c1ccc(F)cc1)C(F)(F)F)S(=O)(=O)c1ccc(N2CCOCC2)s1 (centres unmarked) [Example 89, N-ethyl-5-morpholino-N-(2,2,2-trifluoro-1-(4-fluorophenyl)ethyl)thiophene-2-sulfonamide]
6.20 | CCN([C@H](c1ccc(F)cc1)C(F)(F)F)S(=O)(=O)c1ccc(N2CCOCC2)s1 [Example 90, (R)—N-ethyl-5-morpholino-N-(2,2,2-trifluoro-1-(4-fluorophenyl)ethyl)thiophene-2-sulfonamide]
5.37 | CCN([C@@H](c1ccc(F)cc1)C(F)(F)F)S(=O)(=O)c1ccc(N2CCOCC2)s1 [Example 91, (S)—N-ethyl-5-morpholino-N-(2,2,2-trifluoro-1-(4-fluorophenyl)ethyl)thiophene-2-sulfonamide]
6.53 | CCN(C(c1ccc(F)cc1)C(F)(F)F)S(=O)(=O)c1cncc(N2CCOCC2)c1 (centres unmarked) [Example 93, N-ethyl-5-morpholino-N-(2,2,2-trifluoro-1-(4-fluorophenyl)ethyl)pyridine-3-sulfonamide]
5.85 | CCN(C(c1ccc(F)cc1)C(F)(F)F)S(=O)(=O)c1cncc(N2CCCC2)c1 (centres unmarked) [Example 94, N-ethyl-5-(pyrrolidin-1-yl)-N-(2,2,2-trifluoro-1-(4-fluorophenyl)ethyl)pyridine-3-sulfonamide]
5.62 | CCN([C@@H](c1ccc(F)cc1)C(F)(F)F)S(=O)(=O)c1cncc(N2CCOCC2)c1 [Example 95, (S)—N-ethyl-5-morpholino-N-(2,2,2-trifluoro-1-(4-fluorophenyl)ethyl)pyridine-3-sulfonamide]
5.22 | CCN([C@@H](c1ccc(F)cc1)C(F)(F)F)S(=O)(=O)c1cncc(N2CCCC2)c1 [Example 97, (S)—N-ethyl-5-(pyrrolidin-1-yl)-N-(2,2,2-trifluoro-1-(4-fluorophenyl)ethyl)pyridine-3-sulfonamide]
5.80 | CCN([C@H](c1ccc(F)cc1)C(F)(F)F)S(=O)(=O)c1cncc(N2CCCC2)c1 [Example 98, (R)—N-ethyl-5-(pyrrolidin-1-yl)-N-(2,2,2-trifluoro-1-(4-fluorophenyl)ethyl)pyridine-3-sulfonamide]
6.50 | CCN(C(c1ccc(F)cc1)C(F)(F)F)S(=O)(=O)c1ccn(C)c(=O)c1 (centres unmarked) [Example 103, N-ethyl-1-methyl-2-oxo-N-(2,2,2-trifluoro-1-(4-fluorophenyl)ethyl)-1,2-dihydropyridine-4-sulfonamide]
7.24 | CCN(C(c1ccc(C)cc1)C(F)(F)F)S(=O)(=O)c1cncc(C#N)c1 (centres unmarked) [Example 104, 5-Cyano-N-ethyl-N-(2,2,2-trifluoro-1-(p-tolyl)ethyl)pyridine-3-sulfonamide]
